In patent US9346810B2, “Pyrrolopyrimidine compounds and uses thereof” (HUTCHISON MEDIPHARMA LIMITED, priority 2010, dated 2016) one finds IC50 data, which are given here for 52 compounds.

What is called pIC50 is the IC50 on a negative log10 scale, so that one unit is a factor of ten.

Holding throughout (format): biochemical
The target of experiment [1] is Recombinant human JAK1 catalytic domain (Homo sapiens (Human), UniProt P23458). Description: JAK1 kinase assay (Z'-LYTE, Tyr 6 Peptide). To be noted: read-out: IC50 in JAK1 kinase assay. The method, then:
(§1) JAK1/2/3 kinase assay are performed in vitro using Kit-Tyr 6 Peptide (Invitrogen, Cat. No. PV4122). TYK2 kinase assay are performed in vitro using Z′-LYTE™ Kinase Assay Kit-Tyr 3 Peptide (Invitrogen, Cat. No. PV3192). […] All compounds are initially tested at 8 different concentrations (1 μM down to 0.0003 μM) using a 1:3 serial dilution scheme.

Experiment [2] has as its target Recombinant human JAK2 catalytic domain (Homo sapiens (Human), UniProt O60674). Nature of the experiment: JAK2 kinase assay (Z'-LYTE, Tyr 6 Peptide). As to conditions: read-out: IC50 in JAK2 kinase assay. The procedure:
as §1

In experiment [3] the target is Recombinant human JAK3 catalytic domain (Homo sapiens (Human), UniProt P52333). Description: JAK3 kinase assay (Z'-LYTE, Tyr 6 Peptide). To be noted: read-out: IC50 in JAK3 kinase assay. The procedure:
as §1

pIC50: −log10 of the molar value.

Chain of Recombinant human JAK1 catalytic domain (P23458 875-1153): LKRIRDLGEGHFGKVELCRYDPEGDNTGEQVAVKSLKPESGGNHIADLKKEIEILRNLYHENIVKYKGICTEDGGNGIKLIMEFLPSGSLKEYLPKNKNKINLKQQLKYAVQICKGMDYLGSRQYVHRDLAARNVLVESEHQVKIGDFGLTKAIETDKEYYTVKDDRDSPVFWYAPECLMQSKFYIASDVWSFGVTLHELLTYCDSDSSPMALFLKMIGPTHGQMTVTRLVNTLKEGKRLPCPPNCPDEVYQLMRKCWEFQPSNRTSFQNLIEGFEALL
Chain of Recombinant human JAK2 catalytic domain (O60674 849-1124): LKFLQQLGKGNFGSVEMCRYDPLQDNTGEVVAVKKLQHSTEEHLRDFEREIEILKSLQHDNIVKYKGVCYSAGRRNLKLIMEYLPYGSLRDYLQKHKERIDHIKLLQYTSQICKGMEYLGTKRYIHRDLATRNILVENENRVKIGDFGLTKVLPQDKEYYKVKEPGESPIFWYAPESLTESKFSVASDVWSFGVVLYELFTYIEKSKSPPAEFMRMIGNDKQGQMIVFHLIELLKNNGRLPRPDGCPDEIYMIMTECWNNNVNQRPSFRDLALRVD
Chain of Recombinant human JAK3 catalytic domain (P52333 822-1111): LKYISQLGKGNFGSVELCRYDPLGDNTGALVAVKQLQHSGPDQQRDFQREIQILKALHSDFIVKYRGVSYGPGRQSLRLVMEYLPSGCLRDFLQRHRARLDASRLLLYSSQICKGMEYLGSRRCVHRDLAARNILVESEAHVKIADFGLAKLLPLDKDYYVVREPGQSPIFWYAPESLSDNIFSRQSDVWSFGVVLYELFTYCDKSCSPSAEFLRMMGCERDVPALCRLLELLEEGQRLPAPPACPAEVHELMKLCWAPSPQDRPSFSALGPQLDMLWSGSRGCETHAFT

Consider `CN(c1ccc(S(=O)(=O)N2CCCC2)cn1)[C@@H]1CCN(c2ncnc3[nH]ccc23)C1` [Compound 247], for which the pIC50 in experiment [1] is 7.00 to 9.00. For `CN(c1ccc(S(=O)(=O)NC(C)(C)C)cn1)[C@@H]1CCN(c2ncnc3[nH]ccc23)C1` [Compound 238], the pIC50 in experiment [1] was 7.00 to 9.00.

In the case of `CN(c1ccc(C(=O)NC[C@H](O)c2ccccc2)cc1F)[C@@H]1CCN(c2ncnc3[nH]ccc23)C1` [Compound 202], the pIC50 in experiment [2] and in experiment [1] was 7.00 to 9.00 in each case. As to `CN(C(=O)Nc1ccc(C(F)(F)F)cc1)[C@@H]1CCN(c2ncnc3[nH]ccc23)C1` [Compound 30], the pIC50 in experiment [2] was 6.00 to 7.00; in experiment [1] it was 7.00 to 9.00. For `CN(c1cc(F)c(C#N)c(F)c1)[C@@H]1CCN(c2ncnc3[nH]ccc23)C1` [Compound 106], the pIC50 in experiment [1] is 7.00 to 9.00. For the compound `CN(c1ccc(S(=O)(=O)N2CCOCC2)cn1)[C@@H]1CCN(c2ncnc3[nH]ccc23)C1` [Compound 252], the results for the negative-log IC50 (pIC50) in experiment [2] and in experiment [1] were 6.00 to 7.00 and 7.00 to 9.00, respectively.

As for `CN(c1ccc(NS(=O)(=O)Cc2ccccc2F)cn1)[C@@H]1CCN(c2ncnc3[nH]ccc23)C1` [Compound 219], in experiment [1], the pIC50 is 7.00 to 9.00.

`CN(c1ccc(S(=O)(=O)N[C@@H]2c3ccccc3C[C@H]2O)cn1)[C@@H]1CCN(c2ncnc3[nH]ccc23)C1` [Compound 233]: the pIC50 in experiment [1] is 7.00 to 9.00. Turning to `CN(c1ccc(S(=O)(=O)N2CCNCC2)cn1)[C@@H]1CCN(c2ncnc3[nH]ccc23)C1` [Compound 251], in experiment [1], the pIC50 is 7.00 to 9.00. In the case of `CN(c1ccncn1)[C@@H]1CCN(c2ncnc3[nH]ccc23)C1` [Compound 154, (R)—N-(1-(7H-pyrrolo[2,3-d]pyrimidin-4-yl)pyrrolidin-3-yl)-N-methylpyrimidin-4-amine], the pIC50 in experiment [2] was 6.00 to 7.00; in experiment [1], 7.00 to 9.00.

Consider `CNS(=O)(=O)c1ccc(N(C)[C@@H]2CCN(c3ncnc4[nH]ccc34)C2)nc1` [Compound 239], for which the pIC50 was 6.00 to 7.00 in experiment [2] and 7.00 to 9.00 in experiment [1]. Take `CN(C(=O)NC1CCOCC1)[C@@H]1CCN(c2ncnc3[nH]ccc23)C1` [Compound 36]: the pIC50 in experiment [1] is 7.00 to 9.00.

With `CN(C(=O)Nc1cccc(C#N)c1)[C@@H]1CCN(c2ncnc3[nH]ccc23)C1` [Compound 16, (R)-1-(1-(7H-pyrrolo[2,3-d]pyrimidin-4-yl)pyrrolidin-3-yl)-3-(3-cyanophenyl)-1-methylurea], the figures for the pIC50 in experiment [2] and in experiment [1] were 6.00 to 7.00 and 7.00 to 9.00, respectively. On to `COC(=O)c1ccc(N(C)[C@@H]2CCN(c3ncnc4[nH]ccc34)C2)nc1` [Compound 168, (R)-methyl 6-((1-(7H-pyrrolo[2,3-d]pyrimidin-4-yl)pyrrolidin-3-yl)(methyl)amino)nicotinate], for which the pIC50 is 7.00 to 9.00 in experiment [2] and 6.00 to 7.00 in experiment [3]. Consider `CN(C(=O)Nc1ccc(Cl)cc1)[C@@H]1CCN(c2ncnc3[nH]ccc23)C1` [Compound 33], for which the pIC50 in experiment [1] is 7.00 to 9.00. As for `CN(c1ccc(C(=O)NCc2ccccc2)cc1F)[C@@H]1CCN(c2ncnc3[nH]ccc23)C1` [Compound 187], the pIC50 in experiment [2] is 7.00 to 9.00; in experiment [3] it was 6.00 to 7.00.

As for `CN(C(=O)Nc1ccc(C#N)cc1)[C@@H]1CCN(c2ncnc3[nH]ccc23)C1` [Compound 17], the pIC50 in experiment [2] and in experiment [3] was 6.00 to 7.00 each time.

In the case of `CN(C(=O)CCc1c(Cl)cccc1Cl)[C@@H]1CCN(c2ncnc3[nH]ccc23)C1` [Compound 21], the pIC50 in experiment [1] was 7.00 to 9.00. For `CN(c1ccccn1)[C@@H]1CCN(c2ncnc3[nH]ccc23)C1` [Compound 156], the pIC50 in experiment [2] was 7.00 to 9.00; in experiment [3] it was 6.00 to 7.00.

Regarding `CN(c1ccc(C(F)(F)F)nn1)[C@@H]1CCN(c2ncnc3[nH]ccc23)C1` [Compound 62], the pIC50 in experiment [2] was 7.00 to 9.00; in experiment [3], 6.00 to 7.00. In the case of `CN(C(=O)N1CCCC1)[C@@H]1CCN(c2ncnc3[nH]ccc23)C1` [Compound 37], the pIC50 in experiment [1] is 7.00 to 9.00.

Regarding `CN(c1ccc(C#N)c(Br)c1)[C@@H]1CCN(c2ncnc3[nH]ccc23)C1` [Compound 114], the pIC50 in experiment [2] was 7.00 to 9.00; in experiment [3], 6.00 to 7.00. As for `COCCNS(=O)(=O)c1ccc(N(C)[C@@H]2CCN(c3ncnc4[nH]ccc34)C2)nc1` [Compound 237], the pIC50 in experiment [1] was 7.00 to 9.00. `CN(c1ccc(S(=O)(=O)NCc2ccc(F)cc2)cn1)[C@@H]1CCN(c2ncnc3[nH]ccc23)C1` [Compound 254]: in experiment [1], the pIC50 was 7.00 to 9.00. On to `CC(C)S(=O)(=O)Nc1ccc(N(C)[C@@H]2CCN(c3ncnc4[nH]ccc34)C2)nc1` [Compound 218], for which the pIC50 is 6.00 to 7.00 in experiment [2] and 7.00 to 9.00 in experiment [1]. Consider `C=CCN(C1CCCC1)[C@@H]1CCN(c2ncnc3[nH]ccc23)C1` [Compound 40], for which the figures for the pIC50 in experiment [2] and in experiment [3] were 7.00 to 9.00 and 6.00 to 7.00, respectively. Regarding `CN(c1ccc(NS(=O)(=O)c2cccnc2)cn1)[C@@H]1CCN(c2ncnc3[nH]ccc23)C1` [Compound 215], the pIC50 in experiment [1] is 7.00 to 9.00. Consider `CN(c1ccc(Br)cn1)[C@@H]1CCN(c2ncnc3[nH]ccc23)C1` [Compound 68], for which the pIC50 in experiment [2] is 6.00 to 7.00; in experiment [1], 7.00 to 9.00. Regarding `CN(c1ccc2nc[nH]c2n1)[C@@H]1CCN(c2ncnc3[nH]ccc23)C1` [Compound 163, (R)—N-(1-(7H-pyrrolo[2,3-d]pyrimidin-4-yl)pyrrolidin-3-yl)-N-methyl-3H-imidazo[4,5-b]pyridin-5-amine], the figures for the pIC50 in experiment [2] and in experiment [3] were 7.00 to 9.00 and 6.00 to 7.00, respectively. `CN(c1ccc(S(=O)(=O)NC2CCC[C@@H]2O)cn1)[C@@H]1CCN(c2ncnc3[nH]ccc23)C1` (stereo partly drawn) [Compound 246]: in experiment [1], the pIC50 was 7.00 to 9.00. As for `Cc1cc(Cl)nc(N(C)[C@@H]2CCN(c3ncnc4[nH]ccc34)C2)c1C#N` [Compound 73], the figures for the pIC50 in experiment [2] and in experiment [3] were 7.00 to 9.00 and 6.00 to 7.00, respectively.

For the compound `CN(CCC#N)[C@@H]1CCN(c2ncnc3[nH]ccc23)C1` [Compound 64], the pIC50 in experiment [2] was 7.00 to 9.00; in experiment [3], 6.00 to 7.00.

On to `C#CCN(c1ccc(C#N)cc1)[C@@H]1CCN(c2ncnc3[nH]ccc23)C1` [Compound 131], for which the pIC50 was 7.00 to 9.00 in experiment [2] and 6.00 to 7.00 in experiment [3].

Turning to `CN(c1ccc(C#N)nn1)[C@@H]1CCN(c2ncnc3[nH]ccc23)C1` [Compound 60], the pIC50 in experiment [2] is 7.00 to 9.00; in experiment [3], 6.00 to 7.00. As for `N#Cc1ccc(N[C@@H]2CCN(c3ncnc4[nH]ccc34)C2)nc1` [Compound 81], the pIC50 in experiment [2] is 7.00 to 9.00; in experiment [3] it was 6.00 to 7.00.

For the compound `CN(c1ccc(S(=O)(=O)Nc2ccc(F)cc2)cn1)[C@@H]1CCN(c2ncnc3[nH]ccc23)C1` [Compound 253], the pIC50 in experiment [1] is 7.00 to 9.00.

For `CN(c1ccc(NS(=O)(=O)c2cccs2)cn1)[C@@H]1CCN(c2ncnc3[nH]ccc23)C1` [Compound 214], in experiment [1], the pIC50 is 7.00 to 9.00. In the case of `C#Cc1ccc(N(C)[C@@H]2CCN(c3ncnc4[nH]ccc34)C2)nc1` [Compound 162, (R)—N-(1-(7H-pyrrolo[2,3-d]pyrimidin-4-yl)pyrrolidin-3-yl)-5-ethynyl-N-methylpyridin-2-amine], the pIC50 in experiment [2] and in experiment [3] was 7.00 to 9.00 in each case.

Turning to `CN(c1ccc(C#N)c2ccccc12)[C@@H]1CCN(c2ncnc3[nH]ccc23)C1` [Compound 111], the pIC50 in experiment [2] was 7.00 to 9.00; in experiment [3], 6.00 to 7.00. Regarding `CN(c1ccc(C#N)cn1)[C@H]1CCN(c2ncnc3[nH]ccc23)C1` [Compound 102], the pIC50 in experiment [2] was 7.00 to 9.00; in experiment [3] it was 6.00 to 7.00. With `CN(c1ccc(C#N)cc1[N+](=O)[O-])[C@@H]1CCN(c2ncnc3[nH]ccc23)C1` [Compound 107], the pIC50 in experiment [2] and in experiment [3] was 6.00 to 7.00 throughout. With `N#Cc1ccc(N(C2CC2)[C@@H]2CCN(c3ncnc4[nH]ccc34)C2)nc1` [Compound 41], the negative logarithm of the IC50 (pIC50) was 7.00 to 9.00 in experiment [2] and 6.00 to 7.00 in experiment [3]. The like results for `CN(c1cccc(C#N)n1)[C@@H]1CCN(c2ncnc3[nH]ccc23)C1` [Compound 91] were, in that order, 7.00 to 9.00 and 6.00 to 7.00. On to `CN(c1cccc(C#N)c1)[C@@H]1CCN(c2ncnc3[nH]ccc23)C1` [Compound 119, (R)-3-((1-(7H-pyrrolo[2,3-d]pyrimidin-4-yl)pyrrolidin-3-yl)(methyl)amino)benzonitrile], for which, in experiment [1], the negative-log IC50 (pIC50) is 7.00 to 9.00. `CN(c1ncccc1C#N)[C@@H]1CCN(c2ncnc3[nH]ccc23)C1` [Compound 159]: the pIC50 in experiment [2] is 7.00 to 9.00; in experiment [3] it was 6.00 to 7.00.

In the case of `C#CCN(c1cnc(C#N)cn1)[C@@H]1CCN(c2ncnc3[nH]ccc23)C1` [Compound 127], in experiment [1], the pIC50 was 7.00 to 9.00. On to `C#CCN(c1c(F)cc(C#N)cc1F)[C@@H]1CCN(c2ncnc3[nH]ccc23)C1` [Compound 129], for which the pIC50 in experiment [2] and in experiment [3] was 7.00 to 9.00 in each case.

As for `CCCN(c1ccc(C#N)cn1)[C@@H]1CCN(c2ncnc3[nH]ccc23)C1` [Compound 98], the pIC50 in experiment [2] is 7.00 to 9.00; in experiment [3], 6.00 to 7.00.

On to `CN(c1ncc(C#N)cc1[N+](=O)[O-])[C@@H]1CCN(c2ncnc3[nH]ccc23)C1` [Compound 96], for which the pIC50 in experiment [2] and in experiment [3] was 6.00 to 7.00 each time. In the case of `C[C@H](O)CNS(=O)(=O)c1ccc(N(C)[C@@H]2CCN(c3ncnc4[nH]ccc34)C2)nc1` [Compound 245], in experiment [1], the pIC50 was 7.00 to 9.00.

Take `CN(c1ccc(-c2ccncc2)cn1)[C@@H]1CCN(c2ncnc3[nH]ccc23)C1` [Compound 144, (R)—N-(1-(7H-pyrrolo[2,3-d]pyrimidin-4-yl)pyrrolidin-3-yl)-N-methyl-3,4′-bipyridin-6-amine]: in experiment [1], the pIC50 was 7.00 to 9.00. Regarding `CN(c1ncc(C#N)cc1Br)[C@@H]1CCN(c2ncnc3[nH]ccc23)C1` [Compound 99], the pIC50 was 7.00 to 9.00 in experiment [2] and 6.00 to 7.00 in experiment [3].
